This test relates to L1210 leukemia ip in BDF1 mice, survival T/C. Nature of the test: NCI In Vivo Anticancer Drug Screen. Data for tumor model L1210 Leukemia (intraperitoneal) in B6D2F1 (BDF1) mice. The note with it: endpoint: mean survival time, higher = longer survival. The method in brief: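 Mice bearing the transplanted tumor received compound or vehicle. Survival of the treated group was divided by that of the vehicle-treated control group to give the ratio.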

[1] abbreviates: dose: 100.0 mg/kg/injection, schedule: Q04DX003 (ip), vehicle: Klucel (hydroxypropylcellulose) (HPC).
Where [2] appears, read: dose: 200.0 mg/kg/injection, schedule: Q04DX003 (ip), vehicle: Klucel (hydroxypropylcellulose) (HPC).
Setting [3] is: dose: 400.0 mg/kg/injection, schedule: Q04DX003 (ip), vehicle: Klucel (hydroxypropylcellulose) (HPC).
Setting [4] is: dose: 25.0 mg/kg/injection, schedule: Q01DX009 (ip), vehicle: Klucel (hydroxypropylcellulose) (HPC).
Setting [5] is: dose: 50.0 mg/kg/injection, schedule: Q01DX009 (ip), vehicle: Klucel (hydroxypropylcellulose) (HPC).
The mark [6] stands for this setting: dose: 50.0 mg/kg/injection, schedule: Q04DX003 (ip), vehicle: Klucel (hydroxypropylcellulose) (HPC).
Setting [7] is: dose: 100.0 mg/kg/injection, schedule: Q01DX009 (ip), vehicle: Klucel (hydroxypropylcellulose) (HPC).
[8] abbreviates: dose: 200.0 mg/kg/injection, schedule: Q01DX009 (ip), vehicle: Klucel (hydroxypropylcellulose) (HPC).
[9] abbreviates: dose: 100.0 mg/kg/injection, schedule: Q01DX009 (ip), vehicle: saline with Tween-80.
Where [10] appears, read: dose: 200.0 mg/kg/injection, schedule: Q01DX009 (ip), vehicle: saline with Tween-80.
Setting [11] is: dose: 25.0 mg/kg/injection, schedule: Q01DX009 (ip), vehicle: saline with Tween-80.
The mark [12] stands for this setting: dose: 50.0 mg/kg/injection, schedule: Q01DX009 (ip), vehicle: saline with Tween-80.
The mark [13] stands for this setting: dose: 100.0 mg/kg/injection, schedule: Q01DX001 (ip), vehicle: carboxymethylcellulose (CMC).
The mark [14] stands for this setting: dose: 200.0 mg/kg/injection, schedule: Q01DX001 (ip), vehicle: carboxymethylcellulose (CMC).
Where [15] appears, read: dose: 400.0 mg/kg/injection, schedule: Q01DX001 (ip), vehicle: carboxymethylcellulose (CMC).

Values joined by “and” are separate entries in the source; they are usually repeats but may differ in a detail not shown here. Equal values may be shown once. Toxic doses and inconclusive results are not listed.

Take `O=[N+]([O-])c1c(Cl)cc(Cl)c([N+](=O)[O-])c1Cl`: the T/C was 94 % of control under setting [1], 90 % of control under setting [2] and 94 % of control under setting [3].

As to `CCCCCCSc1nccnc1C`, the T/C reads like this: under setting [4], 100 % of control; (dose: 50.0 mg/kg/injection, schedule: Q01DX001 (ip), vehicle: Klucel (hydroxypropylcellulose) (HPC)) 92 % of control; under setting [5], 92 % of control and 96 % of control; (dose: 50.0 mg/kg/injection, schedule: Q04DX002 (ip), vehicle: Klucel (hydroxypropylcellulose) (HPC)) 92 % of control; under setting [6], 93 % of control; (dose: 100.0 mg/kg/injection, schedule: Q01DX001 (ip), vehicle: Klucel (hydroxypropylcellulose) (HPC)) 95 % of control. The T/C reads like this: under setting [7], 123 % of control and 91 % of control; (dose: 100.0 mg/kg/injection, schedule: Q04DX002 (ip), vehicle: Klucel (hydroxypropylcellulose) (HPC)) 102 % of control; under setting [1], 95 % of control; (dose: 200.0 mg/kg/injection, schedule: Q01DX001 (ip), vehicle: Klucel (hydroxypropylcellulose) (HPC)) 98 % of control; under setting [8], 100 % of control; (dose: 200.0 mg/kg/injection, schedule: Q04DX002 (ip), vehicle: Klucel (hydroxypropylcellulose) (HPC)) 87 % of control. Besides, the T/C is, setting by setting: under setting [2], 92 % of control; (dose: 400.0 mg/kg/injection, schedule: Q01DX001 (ip), vehicle: Klucel (hydroxypropylcellulose) (HPC)) 98 % of control; (dose: 400.0 mg/kg/injection, schedule: Q04DX002 (ip), vehicle: Klucel (hydroxypropylcellulose) (HPC)) 94 % of control; under setting [3], 87 % of control.

Regarding `Cc1cc(N=Nc2ccc([N+](=O)[O-])cc2)ccc1N(C)C`, the T/C by setting is: (dose: 100.0 mg/kg/injection, schedule: Q01DX001 (ip), vehicle: other) 97 % of control; (dose: 200.0 mg/kg/injection, schedule: Q01DX001 (ip), vehicle: other) 101 % of control; (dose: 400.0 mg/kg/injection, schedule: Q01DX001 (ip), vehicle: other) 89 % of control.

Regarding `CN=C(NC(C)C)c1ccc(NC(=O)c2ccc(C(=O)Nc3ccc(C(=NC)NC(C)C)cc3)cc2)cc1`, the T/C was 97 % of control (dose: 2.0 mg/kg/injection, schedule: Q01DX Z (ip), vehicle: carboxymethylcellulose (CMC)); 101 % of control (dose: 4.0 mg/kg/injection, schedule: Q01DX Z (ip), vehicle: carboxymethylcellulose (CMC)); 112 % of control (dose: 6.0 mg/kg/injection, schedule: Q01DX Z (ip), vehicle: carboxymethylcellulose (CMC)); 151 % of control (dose: 16.0 mg/kg/injection, schedule: Q01DX Z (ip), vehicle: carboxymethylcellulose (CMC)); 96 % of control (dose: 25.0 mg/kg/injection, schedule: Q01DX Z (oral), vehicle: carboxymethylcellulose (CMC)); 117 % of control (dose: 31.0 mg/kg/injection, schedule: Q01DX Z (ip), vehicle: methylcellulose (MC)). Further, the T/C (dose: 50.0 mg/kg/injection, schedule: Q01DX Z (oral), vehicle: carboxymethylcellulose (CMC)) was 101 % of control; the T/C (dose: 62.5 mg/kg/injection, schedule: Q01DX Z (ip), vehicle: methylcellulose (MC)) was 157 % of control; the T/C (dose: 100.0 mg/kg/injection, schedule: Q01DX Z (oral), vehicle: carboxymethylcellulose (CMC)) was 96 % of control; the T/C (dose: 125.0 mg/kg/injection, schedule: Q01DX Z (ip), vehicle: methylcellulose (MC)) is 157 % of control; the T/C (dose: 200.0 mg/kg/injection, schedule: Q01DX Z (oral), vehicle: carboxymethylcellulose (CMC)) was 101 % of control; the T/C (dose: 250.0 mg/kg/injection, schedule: Q01DX Z (ip), vehicle: methylcellulose (MC)) was 97 % of control.

Regarding `CN(C)C(=O)C1(c2ccc(Cl)cc2)CCN(CCCC(=O)c2ccc(F)cc2)CC1`, the T/C by setting is: (dose: 12.5 mg/kg/injection, schedule: Q01DX009 (ip), vehicle: Klucel (hydroxypropylcellulose) (HPC)) 94 % of control; under setting [4], 94 % of control; (dose: 25.0 mg/kg/injection, schedule: Q04DX003 (ip), vehicle: Klucel (hydroxypropylcellulose) (HPC)) 121 % of control; under setting [5], 100 % of control; under setting [6], 106 % of control; under setting [7], 111 % of control. Moreover, the T/C under setting [1] was 116 % of control, the T/C under setting [8] is 96 % of control and the T/C under setting [2] was 116 % of control.

As to `Br/C=C\c1ccccc1`, the T/C by setting is: (dose: 50.0 mg/kg/injection, schedule: Q01DX009 (ip), vehicle: acetone) 86 % of control; (dose: 100.0 mg/kg/injection, schedule: Q01DX009 (ip), vehicle: saline) 107 % of control; (dose: 100.0 mg/kg/injection, schedule: Q04DX003 (ip), vehicle: saline) 97 % of control; (dose: 200.0 mg/kg/injection, schedule: Q01DX009 (ip), vehicle: acetone) 95 % of control; (dose: 200.0 mg/kg/injection, schedule: Q04DX003 (ip), vehicle: saline) 94 % of control; (dose: 400.0 mg/kg/injection, schedule: Q04DX003 (ip), vehicle: saline) 98 % of control.

With `CC(=O)c1ccccc1OS(=O)(=O)c1ccc([N+](=O)[O-])cc1`, the T/C reads like this: under setting [9], 105 % of control; under setting [1], 105 % of control; under setting [10], 111 % of control; under setting [2], 100 % of control; (dose: 400.0 mg/kg/injection, schedule: Q01DX009 (ip), vehicle: saline with Tween-80) 114 % of control; under setting [3], 103 % of control.

Turning to `Cc1cc(O)n(Cc2ccccc2)c(=O)c1`, the T/C was 96 % of control under setting [11]; 93 % of control under setting [12]; 93 % of control under setting [9]; 109 % of control (dose: 100.0 mg/kg/injection, schedule: Q04DX003 (ip), vehicle: saline with Tween-80); 94 % of control under setting [10]; 98 % of control (dose: 200.0 mg/kg/injection, schedule: Q04DX003 (ip), vehicle: saline with Tween-80). In addition, where the note is “dose: 400.0 mg/kg/injection, schedule: Q04DX003 (ip), vehicle: saline with Tween-80”, the T/C was 90 % of control.

As for `CCCCCCCCC1OCC(C)(C)C(C(C)C)O1` (stereo unspecified), the T/C runs as follows: (dose: 50.0 mg/kg/injection, schedule: Q01DX001 (ip), vehicle: carboxymethylcellulose (CMC)) 102 % of control; under setting [13], 104 % of control; under setting [14], 107 % of control; under setting [15], 104 % of control.

Take `CCCCCCCCCCCCCCCCS(=O)(=O)N/N=C/c1cc(Cl)ccc1O`: the T/C is 94 % of control under setting [13], 92 % of control under setting [14] and 92 % of control under setting [15].

As for `C1CCC(C2CCCC(C3CCCC[N-]3)[N-]2)[N-]C1.[Cl][Pt]` (stereo unspecified), the T/C is 102 % of control (dose: 12.5 mg/kg/injection, schedule: Q01DX009 (ip), vehicle: saline); 98 % of control (dose: 25.0 mg/kg/injection, schedule: Q01DX009 (ip), vehicle: saline); 104 % of control and 106 % of control (dose: 50.0 mg/kg/injection, schedule: Q01DX009 (ip), vehicle: saline).

Consider `CCn1c(=O)sc2cc(Cl)ccc21`, for which the T/C is 102 % of control (dose: 100.0 mg/kg/injection, schedule: Q01DX001 (ip), vehicle: saline); 98 % of control (dose: 200.0 mg/kg/injection, schedule: Q01DX001 (ip), vehicle: saline); 108 % of control (dose: 400.0 mg/kg/injection, schedule: Q01DX001 (ip), vehicle: saline).

Take `CCC(=O)/C=C/c1ccccc1OC`: the T/C (dose: 100.0 mg/kg/injection, schedule: Q04DX002 (ip), vehicle: saline with Tween-80) is 97 % of control; the T/C (dose: 200.0 mg/kg/injection, schedule: Q04DX002 (ip), vehicle: saline with Tween-80) is 105 % of control; the T/C (dose: 400.0 mg/kg/injection, schedule: Q04DX002 (ip), vehicle: saline with Tween-80) is 105 % of control.

In the case of `O=C(Nc1ccc(Cl)c(Cl)c1)Sc1ccc(Cl)cc1`, the T/C is 100 % of control under setting [11], 103 % of control under setting [12] and 101 % of control under setting [9].
